In US12161628B2, “Combination therapy” (Medivation Prostate Therapeutics LLC, priority 2015, dated 2024):
Values joined by “and” are separate entries in the source; they are usually repeats but may differ in a detail not shown here. Identical values can stand only once. Like-named read-outs stand apart in the source and are kept apart here. Blank lines part the entries; values can stand above or below the molecule they belong to.

What was measured:
CYP3A4 = conditions: in vivo
Experimental: Data handling. […] In addition, for many subjects, urine samples taken post enzalutamide dose were not taken within 180 minutes of the ‘virtual’ enzalutamide dosing time (i.e., day 1 enzalutamide dosing time [enzalutamide treatment arm{treatment arm 1}] and day 8 enzalutamide dosing time [enzalutamide+rifampin treatment arm {treatment arm 2}]) and/or pre-dose of rifampin. The 6β-hydroxycortisol and cortisol concentrations of these urine samples and obtained 6β-hydroxycortisol/cortisol ratios were excluded from summary statistics.

[1] = human, in vivo
Experimental: (§1) For all subjects in the rifampin treatment arm, the last quantifiable enzalutamide concentration was measured prior to the end of the rifampin dosing period (up to 13 days after enzalutamide dosing).
(§2) It should be noted that AUCs could only be accurately determined for 4 subjects in the enzalutamide treatment arm (treatment arm 1) and 6 subjects in the enzalutamide+rifampin treatment arm (treatment arm 2).

clinical = conditions: human, in vivo; for Vd/F: Vz/F
Experimental: as §1, §2

[2] = Drug-drug interaction trial: plasma pharmacokinetics of enzalutamide, M1, M2 and sum of enzalutamide plus M2 after single 160 mg enzalutamide alone or with multiple doses of rifampin; conditions: for MPR (MWC): metabolite versus parent ratio (molecular weight corrected), Mean: based on AUCinf;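 on all read-outs here: human plasma pharmacokinetics in a two-arm drug interaction trial comparing enzalutamide given alone against enzalutamide given with rifampin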
Experimental: as §1, §2

[3] = Rifampin plasma pharmacokinetics on day 8 after multiple doses of 600 mg once daily; format: in vivo, human (healthy volunteers); conditions: multiple doses of 600 mg rifampin once daily; for AUC / concentration at 2 h / Cmax / Tmax: human, plasma, oral, 600 mg
Experimental: Data handling. The actual sampling time of enzalutamide and its metabolites for 6 subjects (7 samples in total), and the actual sampling time of the 2-hour rifampin sample of subject 10002 on Day 21 deviated more than 10% of the scheduled time point.
In FIG. 7, individual and mean rifampin C2H plasma concentrations that were obtained during the entire dosing period of 21 days are presented.
Median tmax was reached 2 hours post-dose.

[4] = plasma, Enzalutamide (Reference), single 160 mg dose alone
[5] = plasma, single dose 160 mg enzalutamide alone
[6] = plasma, single dose 160 mg enzalutamide in the presence of multiple doses of 600 mg rifampin once daily (Test)

Inductive effect on CYP3A4 (pharmacodynamic assessment) (CYP3A4): minimal inductive effect
AUC0-336hr lower in the presence of rifampin [1]: 63%
AUCinf lower in the presence of rifampin [1]: 66%
% AUC (percentage extrapolated), range of individual values ([1]; 160 mg): 0.658-4.56%
CL/F, Mean ([1]; 160 mg): 0.6330 L/h
CL/F, Median ([1]; 160 mg): 0.6184 L/h
AUC(0-inf) (clinical): 86.9 µg·h/mL
AUC(0-t) (clinical): 86.8 µg·h/mL
Cmax (clinical): 4520 ng/mL
AUC(0-t) (clinical; 160 mg, AUC0-336h, Mean): 239 µg·h/mL
AUC(0-t) (clinical; 160 mg, AUC0-336h, Median): 233 µg·h/mL
AUC(0-t) (clinical; 160 mg, AUC0-t, Mean): 258 µg·h/mL
AUC(0-t) (clinical; 160 mg, AUC0-t, Median): 254 µg·h/mL
AUC(0-inf) (clinical; 160 mg, AUCinf, Geometric LS Mean): 257 µg·h/mL
AUC(0-inf) (clinical; 160 mg, AUCinf, Mean): 262 µg·h/mL
AUC(0-inf) (clinical; 160 mg, AUCinf, Median): 259 µg·h/mL
Cmax (clinical; 160 mg, Cmax, Geometric LS Mean): 4860 ng/mL
Cmax (clinical; 160 mg, Cmax, Mean): 4930 ng/mL
Cmax (clinical; 160 mg, Cmax, Median): 5140 ng/mL
Vd/F (clinical; 160 mg, Mean): 79.8 L
Vd/F (clinical; 160 mg, Median): 78.1 L
half-life (clinical; 160 mg, t1/2, Mean): 90.1 h
half-life (clinical; 160 mg, t1/2, Median): 85.7 h
Tmax (clinical; 160 mg, Mean): 1.08 h
Tmax (clinical; 160 mg, Median): 0.91 h
Structure (SMILES): CNC(=O)c1ccc(N2C(=S)N(c3ccc(C#N)c(C(F)(F)F)c3)C(=O)C2(C)C)cc1F [Enzalutamide, 4-{3-[4-cyano-3-(trifluoromethyl)phenyl]-5,5-dimethyl-4-oxo-2-sulfanylideneimidazolidin-1-yl}-2-fluoro-N-methylbenzamide]

Structure (SMILES): CC1(C)C(=O)N(c2ccc(C#N)c(C(F)(F)F)c2)C(=S)N1c1ccc(C(=O)O)c(F)c1 [M1]
AUC0-336hr lower in the presence of rifampin [1]: 15%
AUCinf lower in the presence of rifampin [1]: 32%
AUC0-336h, Mean ([1]; 160 mg): 32.49 µg·h/mL
AUC0-336h, Median ([1]; 160 mg): 31.38 µg·h/mL
AUC0-t, Mean ([1]; 160 mg): 47.87 µg·h/mL
AUC0-t, Median ([1]; 160 mg): 46.66 µg·h/mL
AUCinf, Geometric LS Mean ([1]; 160 mg): 59.62 µg·h/mL
AUCinf, Mean ([1]; 160 mg): 62.14 µg·h/mL
AUCinf, Median ([1]; 160 mg): 57.39 µg·h/mL
Cmax, Geometric LS Mean ([1]; 160 mg): 134.6 ng/mL
Cmax, Mean ([1]; 160 mg): 141.4 ng/mL
Cmax, Median ([1]; 160 mg): 135 ng/mL
t1/2, Mean ([1]; 160 mg): 223.9 h
t1/2, Median ([1]; 160 mg): 236.6 h

Structure (SMILES): CC1(C)C(=O)N(c2ccc(C#N)c(C(F)(F)F)c2)C(=S)N1c1ccc(C(N)=O)c(F)c1 [M2, N-desmethyl enzalutamide]
AUC0-336hr higher in the presence of rifampin ([2]; compared to enzalutamide alone): 15%
AUCinf lower in the presence of rifampin ([2]; compared to enzalutamide alone): 15%
Cmax higher in the presence of rifampin ([2]; compared to enzalutamide alone): 34%
AUCinf, Geometric LS Mean [2, 4]: 349.3 µg·h/mL
Cmax, Geometric LS Mean [2, 4]: 737 ng/mL
AUC0-336h, Mean [2, 5]: 197.6 µg·h/mL
AUC0-336h, Median [2, 5]: 184.1 µg·h/mL
AUC0-t, Mean [2, 5]: 344.3 µg·h/mL
AUC0-t, Median [2, 5]: 338.3 µg·h/mL
AUCinf, Mean [2, 5]: 354.0 µg·h/mL
AUCinf, Median [2, 5]: 351.0 µg·h/mL
Cmax, Mean [2, 5]: 754.6 ng/mL
Cmax, Median [2, 5]: 714.5 ng/mL
MPR (MWC): metabolite versus parent ratio (molecular weight corrected), Median [2, 5]: 1.373
t1/2, Mean [2, 5]: 190.4 h
t1/2, Median [2, 5]: 182.1 h
tmax, Mean [2, 5]: 161.3 h
MPR (MWC): metabolite versus parent ratio (molecular weight corrected), Mean [2, 5]: 1.385 and 1.431
AUC0-336h, Mean [2, 6]: 224.0 µg·h/mL
AUC0-336h, Median [2, 6]: 221.9 µg·h/mL
AUC0-t, Mean [2, 6]: 292.1 µg·h/mL
AUC0-t, Median [2, 6]: 293.5 µg·h/mL
AUCinf, Mean [2, 6]: 297.9 µg·h/mL
AUCinf, Median [2, 6]: 299.4 µg·h/mL
Cmax, Mean [2, 6]: 994.9 ng/mL
Cmax, Median [2, 6]: 1010 ng/mL
MPR (MWC): metabolite versus parent ratio (molecular weight corrected), Median [2, 6]: 3.372
t1/2, Mean [2, 6]: 154.7 h
t1/2, Median [2, 6]: 152.5 h
tmax, Mean [2, 6]: 66.75 h
tmax, Median [2, 6]: 71.86 h
MPR (MWC): metabolite versus parent ratio (molecular weight corrected), Mean [2, 6]: 3.443 and 3.558

AUC ([3]; read-out: AUCtau, Mean): 35.6 µg·h/mL
AUC ([3]; read-out: AUCtau, Median): 35.2 µg·h/mL
concentration at 2 h ([3]; read-out: C2h, Mean): 6760 ng/mL
concentration at 2 h ([3]; read-out: C2h, Median): 6620 ng/mL
Cmax ([3]; read-out: Cmax, Mean): 7160 ng/mL
Cmax ([3]; read-out: Cmax, Median): 7040 ng/mL
Tmax ([3]; read-out: tmax, Mean): 1.72 h
Tmax ([3]; read-out: tmax, Median): 2 h
Cmin, Mean [3]: 0 ng/mL
Structure (SMILES): CO[C@H]1/C=C/O[C@@]2(C)Oc3c(C)c(O)c4c(O)c(c(/C=N/N5CCN(C)CC5)c(O)c4c3C2=O)NC(=O)/C(C)=C\C=C\[C@H](C)[C@H](O)[C@@H](C)[C@@H](O)[C@@H](C)[C@H](OC(C)=O)[C@@H]1C [Rifampin, rifampin]
